# Data: patent US20220241308A1, “NEURONAL FUNCTION MODULATING AGENT” (University of Tsukuba, priority 2019, published 2022)
# Columns and labels:
# Format in all cases: cell-based
# [1] = system: MAP2K4 (mitogen-activated protein kinase 4); experiment: Gene expression experiment (real-time PCR) in SH-SY5Y cells: MAP2K4; conditions: for expression of MAP2K4: 24 h
# Procedure: (§1) SH-SY5Y cells were seeded in 100 mm-cell dishes (BD Biocoat) at concentrations of 3.7×10^5 cells/mL (10 mL/dish) and cultured for 24 h at 37° C. and 5% CO2. Culture medium used was F12/DMEM (Gibco) supplemented with 1% non-essential amino acids (Gibco), 15% FBS (Bio West), and 1% penicillin/streptomycin (Lonza). After 24 h, the culture medium was completely removed with an aspirator, 10 mL of culture medium Opti-MEM(Gibco) was added to each dish, and the cells were cultured for 24 h at 37° C. and 5% CO2. RNA was extracted from the culture cells and analyzed for the expression of genes described below by real-time PCR (designated as “Control” in FIGS. 2 to 8).
# (§2) RNA extraction was performed using ISOGEN Reagent (Nippon Gene Co., Ltd.) in accordance with the protocol recommended by Nippo n Gene Co., Ltd. (see URL: https://www.nippongene.com/siyaku/product/extraction/tds/tds_isogen-rna-dna-protein.pdf). Real-time PCR was performed according to the protocol recommended by Thermo Fisher Scientific using a reagent kit for TaqMan Real-Time PCR (Thermo Fisher Scientific) (see URL: https://assets.thermofisher.com/TFS-Assets/LSG/manuals/4304449_TaqManPCRMM_UG.pdf).
# (§3) 24 h after seeding 100 mm-cell dishes (BD Biocoat) with SH-SY5Y cells, the culture medium was completely removed with an aspirator, amyloid β protein (Beta-Amyloid 1-42, AnaSpec) was mixed with Opti-MEM (Gibco) so that the final concentration was 5 μM, 10 mL of the mixture was added to each dish, the cells were cultured for 24 h at 37° C. and 5% CO2, and RNA was extracted. Except for performing the procedure described above, gene expression was analyzed as described above (designated as “Aβ” in FIGS. 2 to 8).
# (§4) 24 h after seeding 100 mm-cell dishes (BD Biocoat) with SH-SY5Y cells, the culture medium was completely removed with an aspirator, Sample 1 was mixed with culture medium Opti-MEM(Gibco) so that the final concentration was 12.56 μM, 9,990 μL of the mixture was added to each dish and allowed to stand for 10 min, amyloid β protein (Beta-Amyloid 1-42, AnaSpec) was mixed with Opti-MEM (Gibco) so that the final concentration was […], 10 μL of the mixture was added to each well, the cells were cultured for 24 h at 37° C. and 5% CO2, and RNA was extracted. Except for performing the procedure described above, Gene expression was analyzed as described above (designated as “Aβ+M3,5G” in FIGS. 2 to 8).
# (§5) Except that Sample 2 was used instead of Sample 1, gene expression was analyzed as described above (designated as “Aβ+M” in FIGS. 2 to 8).
# (§6) Except that Sample 3 was used instead of Sample 1, gene expression was analyzed as described above (designated as “Aβ+M3G” in FIGS. 2 to 8).
# (§7) 24 h after seeding 100 mm-cell dishes (BD Biocoat) with SH-SY5Y cells, the culture medium was completely removed with an aspirator, 10 mL of culture medium Opti-MEM(Gibco) mixed with Sample 1 was added to each dish, the cells were cultured for 24 h at 37° C. and 5% CO2, and RNA was extracted. Except for performing the procedure described above, gene expression was analyzed as described above (designated as “M3,5G” in FIGS. 2 to 8).
# [2] = system: PI3KCA (phosphatidylinositol-4,5-bisphosphate 3-kinase catalyst subunit α); experiment: Gene expression experiment (real-time PCR) in SH-SY5Y cells: PI3KCA; conditions: for expression of PI3KCA: 24 h
# Procedure: as §1, §2, §3, §4, §5, §6, §7
# [3] = system: MAPK14 (mitogen-activated protein kinase 14); experiment: Gene expression experiment (real-time PCR) in SH-SY5Y cells: MAPK14; conditions: 24 h
# Procedure: as §1, §2, §3, §4, §5
# Except that Sample 3 was used instead of Sample 1, gene expression was analyzed as described above (designated as “Aβ+M3G” in FIGS. 2 to 8). […]
# [4] = 12.56 μM, amyloid β protein-treated cells, compared to “Aβ”
# [5] = 12.56 μM, amyloid β protein-treated cells, compared to “Control”
# [6] = Sample 1 alone, no amyloid β, compared to “Control”
# [7] = amyloid β protein-treated cells, 12.56 μM, ranked against malvidin and malvidin-3-glucoside
compound,measurement,setting,value
"COc1cc(-c2[o+]c3cc(O)cc(OC4OC(CO)C(O)C(O)C4O)c3cc2OC2OC(CO)C(O)C(O)C2O)cc(OC)c1O (stereo not shown) [M3,5G, Malvidin-3,5-diglucoside chloride]",expression of MAP2K4,[1]; [4],significantly high
same,expression of MAP2K4,[1]; [5],significantly high
same,expression of MAP2K4,[1]; [6],significantly increased
same,activity in increasing the expression of MAP2K4,[1]; [7],highest activity
same,expression of PI3KCA,[2]; [4],significantly high
same,expression of PI3KCA,[2]; [5],significantly high
same,expression of PI3KCA,[2]; [6],significantly increased
same,activity in increasing the expression of PI3KCA,[2]; [7],highest activity
same,expression of MAPK14,[3]; [4],significantly high
same,expression of MAPK14,[3]; [6],significantly increased
